In the supplement of paper PMC10307832:

Experiments:
Experiment in all cases: relative viability (nuclei count vs DMSO), 5 days (fraction); higher = more cells survive
SGI-1776 + Decitabine = compound: CN1CCC(CNc2ccc3ncc(-c4cccc(OC(F)(F)F)c4)n3n2)CC1 [SGI-1776] + Nc1ncn([C@H]2C[C@H](O)[C@@H](CO)O2)c(=O)n1 [Decitabine] (partner 2 µM)
In short: (§1)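 Relative viability equals treated-well nuclei counts divided by vehicle-well nuclei counts. Counts came from 4× images of lung cancer cell lines grown in 1536-well plates for 5 days after pin-tool dosing on the day after seeding. Dosing used one drug alone or a fixed anchor-drug dose plus five library-drug doses (not always all listed) in √10 steps, and values are medians of duplicate plates.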

[1] = compound: C1COCCN1C2=NC(=NC3=C2OC4=C3C=CC=N4)C5=CC(=CC=C5)NC(=O)C6=CN=C(C=C6)N + COc1cc2c(Oc3ccc(NC(=O)C4(C(=O)Nc5ccc(F)cc5)CC4)cc3F)ccnc2cc1OCCCN1CCOCC1 [Foretinib] (partner 0.25 µM)
In short: as §1

SGI-1776 + Tozasertib = compound: CN1CCC(CNc2ccc3ncc(-c4cccc(OC(F)(F)F)c4)n3n2)CC1 [SGI-1776] + Cc1cc(Nc2cc(N3CCN(C)CC3)nc(Sc3ccc(NC(=O)C4CC4)cc3)n2)n[nH]1 [Tozasertib] (partner 0.1 µM)
In short: as §1

[2] = compound: C1COCCN1C2=NC(=NC3=C2OC4=C3C=CC=N4)C5=CC(=CC=C5)NC(=O)C6=CN=C(C=C6)N + CS(=O)(=O)CCNCc1ccc(-c2ccc3ncnc(Nc4ccc(OCc5cccc(F)c5)c(Cl)c4)c3c2)o1 [Lapatinib] (partner 2 µM)
In short: as §1

Cell Line	relative viability (SGI-1776 + Decitabine; first compound 0.08 µM)	relative viability (SGI-1776 + Decitabine; first compound 0.8 µM)	relative viability (SGI-1776 + Decitabine; first compound 2.53 µM)	relative viability (SGI-1776 + Decitabine; first compound 8 µM)	relative viability ([1]; first compound 0.02 µM)	relative viability ([1]; first compound 0.06325 µM)	relative viability ([1]; first compound 0.2 µM)	relative viability ([1]; first compound 0.6325 µM)	relative viability ([1]; first compound 2 µM)	relative viability (SGI-1776 + Tozasertib; first compound 0.08 µM)	relative viability (SGI-1776 + Tozasertib; first compound 0.8 µM)	relative viability (SGI-1776 + Tozasertib; first compound 2.53 µM)	relative viability (SGI-1776 + Tozasertib; first compound 8 µM)	relative viability ([2]; first compound 0.02 µM)	relative viability ([2]; first compound 0.06325 µM)	relative viability ([2]; first compound 0.2 µM)	relative viability ([2]; first compound 0.6325 µM)	relative viability ([2]; first compound 2 µM)
201T	0.847	0.894	0.886	0.827	1.31	1.05	1.1	1.1	1.09	0.982	0.901	0.549	0.366	0.957	1.02	0.984	1.04	1.01
A549	0.303	0.238	0.285	0.097	1.05	0.987	0.988	1.06	0.225					1.07	0.925	0.911	0.921	0.468
A-427	0.601	0.587	0.539	0.521	1.11	1.28	1.16	0.855	0.676	0.19	0.212	0.141	0.158	1.06	1.04	0.91	1.1	0.677
ABC-1	1.08	1.09	0.909	0.954	1.09	1.07	0.996	1.04	0.884	0.175	0.134	0.173	0.175	1.38	1.14	1.07	1.21	0.871
BEN	0.733	0.711	0.635	0.554	0.681	0.609	0.594	0.451	0.72	0.523	0.599	0.62	0.453	0.765	0.702	0.744	0.673	0.588
CAL-12T					1.12	1.49	1.19	1.21	0.941	0.3	0.216	0.234	0.205	0.663	0.701	0.632	0.604	0.472
COR-L23	0.445	0.456	0.466	0.342	0.97	1.02	0.99	1.1	0.692	0.204	0.156	0.115	0.11	0.946	1.26	1.15	1.24	0.451
COR-L 105	0.75	0.705	0.737	0.544	0.915	1.28	0.764	0.969	0.777	0.334	0.286	0.352	0.318	0.391	0.318	0.34	0.346	0.289
Calu-6					1.12	0.912	0.987	0.851	0.648					1.3	1.1	1.12	0.98	0.742
ChaGo-K-1	0.56	0.542	0.558	0.47	0.971	1.04	0.955	0.832	0.582	0.242	0.22	0.223	0.177					
EBC-1					0.115	0.0996	0.111	0.102	0.0879					0.178	0.212	0.216	0.17	0.268
EKVX	0.291	0.397	0.355	0.305	0.97	1.01	0.773	0.751	0.339	0.4	0.398	0.307	0.235	0.189	0.181	0.221	0.215	0.207
EMC-BAC-2	0.964	0.994	1.08	0.915	0.991	1.07	1.01	0.902	0.766	0.285	0.257	0.212	0.224	0.932	0.931	0.94	0.897	0.733
EPLC-272H	0.371	0.365	0.395	0.322	0.648	0.776	0.66	0.542	0.476	0.326	0.194	0.194	0.175	0.886	1.02	0.674	0.825	0.53
H3255	0.609	0.582	0.654	0.487	0.985	0.97	0.865	0.754	0.718	0.574	0.825	0.625	0.277	0.241	0.238	0.23	0.238	0.293
HARA	0.574	0.72	0.529	0.448	0.953	1.11	1.09	0.882	0.528	0.18	0.101	0.0992	0.0856	0.749	0.699	0.803	0.707	0.502
HCC-15	0.593	0.692	0.593	0.414	1.05	1.15	1.06	0.947	0.677	0.386	0.312	0.118	0.112	0.865	0.883	0.811	0.818	0.511
HCC-44	0.964	0.938	0.941	0.921						0.904	0.491	0.336	0.246	1.1	1.07	1.09	1.06	0.631
HCC-78	0.714	0.739	0.636	0.657	0.466	0.553	0.587	0.531	0.425	0.466	0.318	0.41	0.308	0.671	0.792	0.767	0.762	0.72
